Data from PMC12802961 (Journal of Antimicrobial Chemotherapy, 2025).

Columns and labels:
P. aeruginosa 106 = experiment: Checkerboard broth microdilution MIC of cefepime alone and with taniborbactam; format: cell-based, Pseudomonas aeruginosa
Text: (§1) Four previously well-characterized cefepime-resistant isolates, namely one ESBL-producing E. coli, one ESBL-producing K. pneumoniae and two P. aeruginosa (one VIM- and one AmpC constitutively -producing), were used.

P. aeruginosa 132 = experiment: as above; format: cell-based, Pseudomonas aeruginosa
Text: as §1

[1] = Single-dose plasma pharmacokinetics, s.c., infected neutropenic mice; conditions: cefepime; one-compartment model; serum/plasma, s.c., infected mice
Description: All animal procedures were carried out in the Animal Facility for Medical and Scientific Purposes of the University General Hospital Attikon (EL 25 BIO 014), Athens, Greece. […] Outbred female CD-1 mice, obtained by the Hellenic Pasteur Institute, Greece, and Charles River Laboratories Models and Services, Germany, were used at the age of 7–8 weeks, weighing 20–25 g. The animals were allowed to acclimatize for at least 5 days upon arrival and were housed under standard conditions with water and food supplied ad libitum. […] Infection was induced (Day 0) by intramuscular injection of 0.05 mL bacterial inoculum of approximately 10^5–10^6 cfu/thigh.
The dose was administered s.c. (0.1 mL) 2 h after infection (t = 0 h). Blood samples were collected in 1 mL K3EDTA tubes through orbital sinus bleeding under isoflurane anaesthesia. Animals were immediately euthanized through cervical dislocation and blood samples taken at timepoints 0, 0.08, 0.25, 0.5, 0.75, 1, 1.5, 2, 3, 4, 6, and 8 h after single dose injection. Blood samples were centrifuged immediately after collection in a pre-cooled centrifuge, and plasma was stored at −80°C. For each timepoint two animals were euthanized in order to have duplicates for each condition.
The Cmax values were calculated from raw data and the AUCs were calculated using the trapezoidal rule. […] Equations used in the program were the classical polyexponential equations Ci(t) = PolyExp(i, n, t), where i = number of the compartments, n = number of doses and t = time from last dose (http://www.boomer.org/c/p4/c19/c19.pdf). The %fT > Ct was then determined using a bisectional rootfinder for intersections between simulated curve and concentration, and calculating the difference between intersection values. Free drug concentrations were used in all calculations.
For taniborbactam, a population pharmacokinetic model was developed using nonlinear mixed-effects modelling (NONMEM). The analysis was performed on the natural logarithm of the concentrations using the FOCE method with INTERACTION. All mice were assumed to weigh 1kg, resulting in PK parameters corresponding to a per kg base. […] Tools used to evaluate and visualize the model were RStudio (v0.98.1049), R (v3.1.2), XPose (v4.5.3) and PsN (v4.6.0), all with the graphical interface Pirana (v2.9.0).
To determine the structural pharmacokinetic model 1-, 2- and 3-compartment models were tested. Pharmacokinetic parameters were estimated in terms of central and peripheral volume of distribution (Vc and Vp), clearance (CL), and intercompartmental clearance (Q). Addition of interindividual variability (IPV), described using an exponential eta model, was evaluated for each pharmacokinetic parameter. The covariance between values for IPV was estimated using a […] matrix. Residual variability between observed and predicted plasma concentrations was described using an additional error model for logarithmically transformed data. The minimum value of objective function (OFV) was used as a criterion for model selection. […] Model adequacy was further evaluated by using various residual plots (‘goodness-of-fit’ plots) and values of random effects in variances. In the second step relationships between pharmacokinetic parameters and potential covariates were investigated. […] Dose covariates were modelled by using an exponential model, place of infection was modelled proportionally. Criteria for the inclusion of covariates in the model were the OFV, results of graphical evaluation of the parameter-covariate relationship and the decrease in parameter variability.
Three procedures were used to validate the final model. As an internal validation method, a bootstrap resampling method was used. Bootstrap datasets (n=1000) were generated by sampling randomly from the original dataset with replacement. Parameters were estimated for each of the replicate datasets using the developed model.

K. pneumoniae 59 = experiment: Neutropenic murine thigh infection model; format: in vivo, Klebsiella pneumoniae
Description: All dosing regimens were performed in at least two animals per dosing regimen.
At t = 0 h, 2 h after infection, two mice were humanely euthanized to determine the initial number of cfu/thigh just before treatment. […] Subsequently, thighs were homogenized using the Ultra-Turrax homogenizer (IKA Labortechnik, Germany). For each thigh 10-fold dilution series were prepared and 3 × 10 µL per dilution were plated (Chromagar, bioMérieux, NL). The following day, colonies were counted and the number of cfu/thigh was calculated.
Free drug concentrations were used in all calculations.

[2] = tested on: β-lactamase–producing Enterobacterales and Pseudomonas aeruginosa; experiment: Neutropenic murine thigh infection model, all isolates together; format: in vivo; conditions: against Enterobacterales and AmpC-producing P. aeruginosa
Description: […]. […] […]. All dosing regimens were performed in at least two animals per dosing regimen.
At t = 0 h, 2 h after infection, two mice were humanely euthanized to determine the initial number of cfu/thigh just before treatment. All other animals were euthanized at t = 24 h unless the welfare of the animals indicated earlier termination, following animal welfare regulations. Thighs were taken and moved to a pre-cooled 10 mL plastic tube (Transport Tube, Omnilabo, NL) containing 2 mL PBS (NaCl 8.00 g/L, Na2HPO4 * 2H2O 1.44 g/L, KH2PO4 0.26 g/L, pH 7.2–7.4). Subsequently, thighs were homogenized using the Ultra-Turrax homogenizer (IKA Labortechnik, Germany). For each thigh 10-fold dilution series were prepared and 3 × 10 µL per dilution were plated (Chromagar, bioMérieux, NL). The following day, colonies were counted and the number of cfu/thigh was calculated. The drug effect was then determined as the difference between the log10cfu/thigh values at t = 24 h and t = 0 h (mean value of two mice) expressed as Δlog10cfu, i.e. positive result for growth, zero for static effect and negative for reduction of inoculum (killing).
. […] Free drug concentrations were used in all calculations. […]

CO/N=C(\C(=O)N[C@@H]1C(=O)N2C(C(=O)[O-])=C(C[N+]3(C)CCCC3)CS[C@H]12)c1csc(N)n1 [cefepime, Cefepime]
Cefepime MIC at taniborbactam 0.03 mg/L (P. aeruginosa 106; P. aeruginosa 106, +taniborbactam 0.03 mg/L): 32 µg/mL
Cefepime MIC at taniborbactam 0.06 mg/L (P. aeruginosa 106; P. aeruginosa 106, +taniborbactam 0.06 mg/L): 32 µg/mL
Cefepime MIC at taniborbactam 0.125 mg/L (P. aeruginosa 106; P. aeruginosa 106, +taniborbactam 0.125 mg/L): 32 µg/mL
Cefepime MIC at taniborbactam 0.25 mg/L (P. aeruginosa 106; P. aeruginosa 106, +taniborbactam 0.25 mg/L): 16 µg/mL
Cefepime MIC at taniborbactam 0.5 mg/L (P. aeruginosa 106; P. aeruginosa 106, +taniborbactam 0.5 mg/L): 16 µg/mL
Cefepime MIC at taniborbactam 1 mg/L (P. aeruginosa 106; P. aeruginosa 106, +taniborbactam 1 mg/L): 16 µg/mL
Cefepime MIC at taniborbactam 2 mg/L (P. aeruginosa 106; P. aeruginosa 106, +taniborbactam 2 mg/L): 8 µg/mL
Cefepime MIC at taniborbactam 4 mg/L (potMIC) (P. aeruginosa 106; P. aeruginosa 106, +taniborbactam 4 mg/L): 4 µg/mL
MIC (P. aeruginosa 106; Pseudomonas aeruginosa, 106, read-out: Cefepime MIC (mg/L) alone): 32 mg/L
Cefepime MIC at taniborbactam 0.03 mg/L (P. aeruginosa 132; P. aeruginosa 132, +taniborbactam 0.03 mg/L): 16 µg/mL
Cefepime MIC at taniborbactam 0.06 mg/L (P. aeruginosa 132; P. aeruginosa 132, +taniborbactam 0.06 mg/L): 16 µg/mL
Cefepime MIC at taniborbactam 0.125 mg/L (P. aeruginosa 132; P. aeruginosa 132, +taniborbactam 0.125 mg/L): 8 µg/mL
Cefepime MIC at taniborbactam 0.25 mg/L (P. aeruginosa 132; P. aeruginosa 132, +taniborbactam 0.25 mg/L): 4 µg/mL
Cefepime MIC at taniborbactam 0.5 mg/L (P. aeruginosa 132; P. aeruginosa 132, +taniborbactam 0.5 mg/L): 2 µg/mL
Cefepime MIC at taniborbactam 1 mg/L (P. aeruginosa 132; P. aeruginosa 132, +taniborbactam 1 mg/L): 1 µg/mL
Cefepime MIC at taniborbactam 2 mg/L (P. aeruginosa 132; P. aeruginosa 132, +taniborbactam 2 mg/L): 1 µg/mL
Cefepime MIC at taniborbactam 4 mg/L (potMIC) (P. aeruginosa 132; P. aeruginosa 132, +taniborbactam 4 mg/L): 1 µg/mL
MIC (P. aeruginosa 132; Pseudomonas aeruginosa, 132, read-out: Cefepime MIC (mg/L) alone): 16 mg/L
absorbance rate Ka [1]: 15 h⁻¹
Stasis: q2h dose (K. pneumoniae 59; cefepime monotherapy): 117.8 mg/kg
Stasis: %ƒT > MIC (K. pneumoniae 59; cefepime monotherapy q2h): 0.0%
1 log10 kill: %ƒT > MIC (K. pneumoniae 59; cefepime monotherapy q2h, belongs to extrapolated dose): 15.9%
1 log10 kill: Total daily dose, mg/kg (K. pneumoniae 59; cefepime monotherapy q2h, extrapolated): (4371.3) mg/kg
Stasis: Total daily dose (K. pneumoniae 59; cefepime monotherapy q2h s.c. 24 h): 1413.4 mg/kg
1 log10 kill: q2h dose, mg/kg (K. pneumoniae 59; cefepime monotherapy, extrapolated): (364.0) mg/kg
Cefepime %fT > potMIC (K. pneumoniae 59; cefepime q2h 4 mg/kg, potMIC 0.5 mg/L (with 4 mg/L taniborbactam)): 69.30%
Effect of cefepime alone [2]: marginally reached stasis
